# Laboratory results reported in patent US11040028B2, “Penicinotam derivative, preparation method and use thereof” (OCEAN UNIVERSITY OF CHINA, priority 2017, dated 2021).
# Experiments:
# Assay type in all cases: cell-based
# [1] = test system: human fibrosarcoma cells HT-1080; experiment: Anti-fibrosis activity test: inhibition of proliferation of human fibrosarcoma cells HT-1080 (CCK-8); details: Homo sapiens, HT-1080, 48 h, HT-1080 cells, 48 h, CCK-8
# Method in brief: (§1)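 Seed 2×10^4 cells/mL; adhere 24 h, 37° C/5% CO2. Compounds, serial concentrations, triplicate, 48 h. CCK-8 2 h, A450. IR=(1−Ai/Ao)×100% vs blank; IC50 fitted. Pirfenidone as positive control.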
# BHK-21 cells = experiment: Anti-fibrosis activity test: inhibition of BHK-21 cell proliferation (CCK-8); details: Mesocricetus auratus, BHK-21, 48 h, 48 h, CCK-8
# Method in brief: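 Read-out: CCK-8 absorbance at 450 nm after 2 h, giving proliferation inhibition (1−Ai/Ao)×100% versus blank control, from which IC50 was derived. Cells had been treated with compounds for 48 h after 24 h adherence at 37° C. Pirfenidone served as positive control.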
# [2] = test system: human lung fibroblasts HFL1; experiment: Anti-fibrosis activity test: inhibition of proliferation of human lung fibroblasts HFL1 (CCK-8); details: Homo sapiens, HFL1, 48 h, HFL1 cells, 48 h, CCK-8
# Method in brief: as §1
# [3] = test system: human dermal fibroblasts CCC-ESF-1; experiment: Anti-fibrosis activity test: inhibition of proliferation of human dermal fibroblasts CCC-ESF-1 (CCK-8); details: Homo sapiens, Fibroblast; CCC-ESF-1 cells, 48 h, CCK-8
# Method in brief: as §1
# [4] = test system: human embryonic lung fibroblast IMR-90; experiment: Anti-fibrosis activity test: inhibition of proliferation of human embryonic lung fibroblast IMR-90 (CCK-8); details: Homo sapiens; IMR-90 cells, 48 h, CCK-8
# Method in brief: as §1
# [5] = test system: cardiac fibroblast RAT-iCell-C002; experiment: Anti-fibrosis activity test: inhibition of proliferation of cardiac fibroblast RAT-iCell-C002 (CCK-8); details: Cardiac fibroblast, 48 h, RAT-iCell-C002 cells, CCK-8
# Method in brief: as §1
# [6] = test system: mouse macrophages (RAW264.7); experiment: Lipopolysaccharide-induced NO secretion in macrophages (Griess); details: Mus musculus, RAW264.7, 24 h, RAW264.7, LPS 1 μg/ml, a/b isomers given as first/second symbol, read-out: IC50 (μM), inhibition of lipopolysaccharide-induced NO secretion in macrophages
# Method in brief: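 LPS 1 μg/ml, 24 h, RAW264.7 (DMEM/10% FBS); cpds at varied concs. Supernatant NO by Griess, A548; % inhibition vs blank medium.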
# [7] = test system: human hepatic stellate cells LX-2; experiment: Anti-fibrosis activity test: inhibition of proliferation of human hepatic stellate cells LX-2 (CCK-8); details: Homo sapiens, LX-2, 48 h, LX-2 cells, 48 h, CCK-8
# Method in brief: as §1
Structure (SMILES),IC50 [1],IC50 (BHK-21 cells),IC50 [2],IC50 [3],IC50 [4],IC50 [5],IC50 [6],IC50 [7]
"Cc1cccc2c(=O)c3c([nH]c12)C(=O)n1cccc1-3 [Compound 779a, 7-Methyl-5H-pyrrolizino[2,1-b]quinoline-5,11(6H)-dione]",0.05 to 5 mM,0.05 to 5 mM,0.05 to 5 mM,0.05 to 5 mM,0.05 to 5 mM,0.05 to 5 mM,10 to 50 µM,0.05 to 5 mM
"Cc1cccc2c(O)c3c(nc12)C(=O)n1cccc1-3 [Compound 779b, 11-hydroxy-7-methyl-5H-pyrrolizino[2,1-b]quinolin-5-one]",0.05 to 5 mM,0.05 to 5 mM,0.05 to 5 mM,0.05 to 5 mM,0.05 to 5 mM,0.05 to 5 mM,1 to 10 µM,0.05 to 5 mM
"Cc1cc(C)c2[nH]c3c(c(=O)c2c1)-c1cccn1C3=O [Compound 780a, 7,9-Dimethyl-5H-pyrrolizino[2,1-b]quinoline-5,11(6H)-dione]",0.05 to 5 mM,0.05 to 5 mM,0.05 to 5 mM,0.05 to 5 mM,0.05 to 5 mM,0.05 to 5 mM,10 to 50 µM,0.05 to 5 mM
"Cc1cc(C)c2nc3c(c(O)c2c1)-c1cccn1C3=O [Compound 780b, 11-hydroxy-7,9-dimethyl-5H-pyrrolizino[2,1-b]quinolin-5-one]",0.05 to 5 mM,0.05 to 5 mM,0.05 to 5 mM,0.05 to 5 mM,0.05 to 5 mM,0.05 to 5 mM,1 to 10 µM,0.05 to 5 mM
"Cc1cc2[nH]c3c(c(=O)c2cc1C)-c1cccn1C3=O [Compound 781a, 8,9-Dimethyl-5H-pyrrolizino[2,1-b]quinoline-5,11(6H)-dione]",0.05 to 5 mM,0.05 to 5 mM,0.05 to 5 mM,0.05 to 5 mM,0.05 to 5 mM,0.05 to 5 mM,10 to 50 µM,0.05 to 5 mM
"Cc1cc2nc3c(c(O)c2cc1C)-c1cccn1C3=O [Compound 781b, 11-hydroxy-8,9-dimethyl-5H-pyrrolizino[2,1-b]quinolin-5-one]",0.05 to 5 mM,0.05 to 5 mM,0.05 to 5 mM,0.05 to 5 mM,0.05 to 5 mM,0.05 to 5 mM,1 to 10 µM,0.05 to 5 mM
"Cc1cc(C)c2c(=O)c3c([nH]c2c1)C(=O)n1cccc1-3 [Compound 782a, 8,10-Dimethyl-5H-pyrrolizino[2,1-b]quinoline-5,11(6H)-dione]",0.05 to 5 mM,0.05 to 5 mM,0.05 to 5 mM,0.05 to 5 mM,0.05 to 5 mM,0.05 to 5 mM,10 to 50 µM,0.05 to 5 mM
"Cc1cc(C)c2c(O)c3c(nc2c1)C(=O)n1cccc1-3 [Compound 782b, 11-hydroxy-8,10-dimethyl-5H-pyrrolizino[2,1-b]quinolin-5-one]",0.05 to 5 mM,0.05 to 5 mM,0.05 to 5 mM,0.05 to 5 mM,0.05 to 5 mM,0.05 to 5 mM,1 to 10 µM,0.05 to 5 mM
"Cc1ccc(C)c2c(=O)c3c([nH]c12)C(=O)n1cccc1-3 [Compound 783a, 7,10-Dimethyl-5H-pyrrolizino[2,1-b]quinoline-5,11(6H)-dione]",0.05 to 5 mM,< 0.05 mM,0.05 to 5 mM,0.05 to 5 mM,0.05 to 5 mM,0.05 to 5 mM,1 to 10 µM,0.05 to 5 mM
"Cc1ccc(C)c2c(O)c3c(nc12)C(=O)n1cccc1-3 [Compound 783b, 11-hydroxy-7,10-dimethyl-5H-pyrrolizino[2,1-b]quinolin-5-one]",0.05 to 5 mM,0.05 to 5 mM,0.05 to 5 mM,0.05 to 5 mM,0.05 to 5 mM,0.05 to 5 mM,1 to 10 µM,0.05 to 5 mM
"O=C1c2c(c(=O)c3ccccc3n2CCN2CCCCC2)-c2cccn21 [Compound 784a, 6-(2-(Piperidin-1-yl)ethyl)-5H-pyrrolizino[2,1-b]quinoline-5,11(6H)-dione]",0.05 to 5 mM,< 0.05 mM,0.05 to 5 mM,0.05 to 5 mM,0.05 to 5 mM,0.05 to 5 mM,10 to 50 µM,0.05 to 5 mM
"O=C1c2nc3ccccc3c(OCCN3CCCCC3)c2-c2cccn21 [Compound 784b, 11-(2-(piperidin-1-yl)ethoxy)-5H-pyrrolizino[2,1-b]quinolin-5-one]",0.05 to 5 mM,0.05 to 5 mM,0.05 to 5 mM,0.05 to 5 mM,0.05 to 5 mM,0.05 to 5 mM,1 to 10 µM,0.05 to 5 mM
"O=C1c2c(c(=O)c3ccccc3n2CCN2CCOCC2)-c2cccn21 [Compound 785a, 6-(2-Morpholinoethyl)-5H-pyrrolizino[2,1-b]quinoline-5,11(6H)-dione]",< 0.05 mM,0.05 to 5 mM,0.05 to 5 mM,0.05 to 5 mM,0.05 to 5 mM,0.05 to 5 mM,1 to 10 µM,0.05 to 5 mM
"O=C1c2nc3ccccc3c(OCCN3CCOCC3)c2-c2cccn21 [Compound 785b, 11-(2-morpholinoethoxy)-5H-pyrrolizino[2,1-b]quinolin-5-one]",0.05 to 5 mM,0.05 to 5 mM,0.05 to 5 mM,0.05 to 5 mM,0.05 to 5 mM,0.05 to 5 mM,1 to 10 µM,0.05 to 5 mM
"O=C1c2c(c(=O)c3ccccc3n2CCCN2CCCCC2)-c2cccn21 [Compound 786a, 6-(3-(Piperidin-1-yl)propyl)-5H-pyrrolizino[2,1-b]quinoline-5,11(6H)-dione]",0.05 to 5 mM,0.05 to 5 mM,0.05 to 5 mM,0.05 to 5 mM,0.05 to 5 mM,0.05 to 5 mM,1 to 10 µM,0.05 to 5 mM
"O=C1c2nc3ccccc3c(OCCCN3CCCCC3)c2-c2cccn21 [Compound 786b, 11-(3-(piperidin-1-yl)propoxy)-5H-pyrrolizino[2,1-b]quinolin-5-one]",0.05 to 5 mM,0.05 to 5 mM,0.05 to 5 mM,0.05 to 5 mM,0.05 to 5 mM,0.05 to 5 mM,1 to 10 µM,0.05 to 5 mM
"O=C1c2c(c(=O)c3ccccc3n2CCCCN2CCCCC2)-c2cccn21 [Compound 788a, 6-(4-(Piperidin-1-yl)butyl)-5H-pyrrolizino[2,1-b]quinoline-5,11(6H)-dione]",0.05 to 5 mM,0.05 to 5 mM,0.05 to 5 mM,0.05 to 5 mM,0.05 to 5 mM,0.05 to 5 mM,1 to 10 µM,0.05 to 5 mM
"O=C1c2nc3ccccc3c(OCCCCN3CCCCC3)c2-c2cccn21 [Compound 788b, 11-(4-(piperidin-1-yl)butoxy)-5H-pyrrolizino[2,1-b]quinolin-5-one]",0.05 to 5 mM,0.05 to 5 mM,0.05 to 5 mM,0.05 to 5 mM,0.05 to 5 mM,0.05 to 5 mM,1 to 10 µM,0.05 to 5 mM
"O=C1c2c(c(=O)c3ccccc3n2CCCCN2CCOCC2)-c2cccn21 [Compound 789a, 6-(4-Morpholinobutyl)-5H-pyrrolizino[2,1-b]quinoline-5,11(6H)-dione]",0.05 to 5 mM,0.05 to 5 mM,0.05 to 5 mM,0.05 to 5 mM,0.05 to 5 mM,0.05 to 5 mM,1 to 10 µM,0.05 to 5 mM
"O=C1c2nc3ccccc3c(OCCCCN3CCOCC3)c2-c2cccn21 [Compound 789b, 11-(4-morpholinobutoxy)-5H-pyrrolizino[2,1-b]quinolin-5-one]",0.05 to 5 mM,0.05 to 5 mM,0.05 to 5 mM,0.05 to 5 mM,0.05 to 5 mM,0.05 to 5 mM,1 to 10 µM,0.05 to 5 mM
"CCCOCCn1c2c(c(=O)c3ccccc31)-c1cccn1C2=O [Compound 790a, 6-(2-Propoxyethyl)-5H-pyrrolizino[2,1-b]quinoline-5,11(6H)-dione]",0.05 to 5 mM,0.05 to 5 mM,0.05 to 5 mM,0.05 to 5 mM,0.05 to 5 mM,0.05 to 5 mM,1 to 10 µM,0.05 to 5 mM
"CCCOCCOc1c2c(nc3ccccc13)C(=O)n1cccc1-2 [Compound 790b, 11-(2-propoxyethoxy)-5H-pyrrolizino[2,1-b]quinolin-5-one]",0.05 to 5 mM,0.05 to 5 mM,0.05 to 5 mM,0.05 to 5 mM,0.05 to 5 mM,0.05 to 5 mM,1 to 10 µM,0.05 to 5 mM
"CCOCCCn1c2c(c(=O)c3ccccc31)-c1cccn1C2=O [Compound 791a, 6-(3-Ethoxypropyl)-5H-pyrrolizino[2,1-b]quinoline-5,11(6H)-dione]",0.05 to 5 mM,< 0.05 mM,0.05 to 5 mM,0.05 to 5 mM,0.05 to 5 mM,0.05 to 5 mM,1 to 10 µM,0.05 to 5 mM
